Data published in the NIST ThermoML archive (doi:10.1007/s10765-011-1052-5).
Values joined by “and” are separate entries in the source; they are usually repeats but may differ in a detail not shown here. Equal entries are not always repeated.

Conditions: Fluid (supercritical or subcritical phases), Hot wire method

[HH] [hydrogen]
Conditions | thermal conductivity
323.19 K, 5191 kPa | 0.2032 W/m/K
323.19 K, 5193 kPa | 0.2032 W/m/K
323.19 K, 10094 kPa | 0.2067 W/m/K
323.19 K, 10100 kPa | 0.2065 W/m/K
323.2 K, 261 kPa | 0.1971 W/m/K and 0.197 W/m/K
323.2 K, 266 kPa | 0.1971 W/m/K
323.2 K, 267 kPa | 0.1973 W/m/K
323.2 K, 5186 kPa | 0.2029 W/m/K
323.2 K, 5188 kPa | 0.2031 W/m/K
323.2 K, 5190 kPa | 0.2031 W/m/K
323.2 K, 10084 kPa | 0.2067 W/m/K
323.2 K, 10087 kPa | 0.2067 W/m/K
323.2 K, 10095 kPa | 0.2065 W/m/K
323.2 K, 19987 kPa | 0.2147 W/m/K
323.2 K, 19989 kPa | 0.2142 W/m/K
323.2 K, 19998 kPa | 0.2146 W/m/K
323.2 K, 20000 kPa | 0.2142 W/m/K
323.2 K, 39984 kPa | 0.2311 W/m/K
323.2 K, 39993 kPa | 0.2306 W/m/K
323.2 K, 40006 kPa | 0.2312 W/m/K
323.2 K, 40011 kPa | 0.2304 W/m/K
323.2 K, 40020 kPa | 0.2313 W/m/K
323.2 K, 59948 kPa | 0.2488 W/m/K
323.2 K, 59968 kPa | 0.2483 W/m/K
323.2 K, 59985 kPa | 0.2488 W/m/K
323.2 K, 59986 kPa | 0.2482 W/m/K
323.2 K, 79963 kPa | 0.2659 W/m/K
323.2 K, 79984 kPa | 0.2654 W/m/K
323.2 K, 80001 kPa | 0.2659 W/m/K
323.2 K, 80012 kPa | 0.2648 W/m/K
323.2 K, 80034 kPa | 0.2657 W/m/K
323.2 K, 97707 kPa | 0.2804 W/m/K
323.2 K, 97716 kPa | 0.282 W/m/K
323.2 K, 97745 kPa | 0.2813 W/m/K
323.2 K, 97753 kPa | 0.2816 W/m/K
323.2 K, 97762 kPa | 0.2814 W/m/K
323.21 K, 19980 kPa | 0.2147 W/m/K
323.21 K, 59935 kPa | 0.2488 W/m/K
373.22 K, 598 kPa | 0.2223 W/m/K and 0.2224 W/m/K
373.22 K, 599 kPa | 0.2225 W/m/K
373.22 K, 5170 kPa | 0.2262 W/m/K and 0.226 W/m/K and 0.2261 W/m/K
373.22 K, 70084 kPa | 0.2757 W/m/K and 0.2758 W/m/K
373.22 K, 70086 kPa | 0.2758 W/m/K
373.22 K, 98187 kPa | 0.2983 W/m/K
373.22 K, 98197 kPa | 0.2988 W/m/K
373.23 K, 599 kPa | 0.2224 W/m/K
373.23 K, 4315 kPa | 0.2265 W/m/K
373.23 K, 4316 kPa | 0.2258 W/m/K and 0.2256 W/m/K
373.23 K, 5171 kPa | 0.2262 W/m/K
373.23 K, 10126 kPa | 0.2289 W/m/K
373.23 K, 10127 kPa | 0.2291 W/m/K
373.23 K, 10219 kPa | 0.2296 W/m/K and 0.2295 W/m/K and 0.2298 W/m/K
373.23 K, 30052 kPa | 0.2428 W/m/K and 0.2427 W/m/K
373.23 K, 30053 kPa | 0.2422 W/m/K
373.23 K, 30119 kPa | 0.2438 W/m/K
373.23 K, 30120 kPa | 0.2437 W/m/K and 0.2433 W/m/K
373.23 K, 30122 kPa | 0.2432 W/m/K
373.23 K, 49936 kPa | 0.2599 W/m/K and 0.2582 W/m/K and 0.2587 W/m/K
373.23 K, 50144 kPa | 0.2589 W/m/K and 0.2588 W/m/K
373.23 K, 69997 kPa | 0.2756 W/m/K
373.23 K, 69998 kPa | 0.2753 W/m/K and 0.2751 W/m/K
373.23 K, 97555 kPa | 0.3001 W/m/K
373.23 K, 97558 kPa | 0.2995 W/m/K
373.23 K, 97560 kPa | 0.2989 W/m/K
373.23 K, 98190 kPa | 0.2987 W/m/K
373.23 K, 98193 kPa | 0.2983 W/m/K
373.24 K, 10126 kPa | 0.2296 W/m/K
423.25 K, 5114 kPa | 0.2475 W/m/K
423.25 K, 10105 kPa | 0.2494 W/m/K and 0.2502 W/m/K
423.25 K, 30087 kPa | 0.262 W/m/K and 0.2619 W/m/K and 0.2615 W/m/K
423.25 K, 50102 kPa | 0.2764 W/m/K
423.25 K, 70147 kPa | 0.2939 W/m/K
423.25 K, 70150 kPa | 0.2927 W/m/K
423.25 K, 70155 kPa | 0.2923 W/m/K
423.25 K, 96975 kPa | 0.314 W/m/K
423.25 K, 96978 kPa | 0.3137 W/m/K
423.25 K, 96980 kPa | 0.3142 W/m/K
423.26 K, 403 kPa | 0.2426 W/m/K
423.26 K, 404 kPa | 0.2418 W/m/K
423.26 K, 5113 kPa | 0.2477 W/m/K
423.26 K, 5114 kPa | 0.2476 W/m/K
423.26 K, 10104 kPa | 0.2499 W/m/K
423.26 K, 50100 kPa | 0.2771 W/m/K and 0.2762 W/m/K
423.27 K, 400 kPa | 0.2421 W/m/K
423.27 K, 402 kPa | 0.2431 W/m/K
473.27 K, 10065 kPa | 0.2681 W/m/K and 0.2687 W/m/K
473.27 K, 30123 kPa | 0.2799 W/m/K
473.27 K, 30124 kPa | 0.28 W/m/K and 0.2803 W/m/K
473.27 K, 70155 kPa | 0.3079 W/m/K
473.27 K, 70156 kPa | 0.3088 W/m/K
473.27 K, 70160 kPa | 0.3069 W/m/K
473.27 K, 97457 kPa | 0.3277 W/m/K
473.27 K, 97459 kPa | 0.3262 W/m/K
473.27 K, 97460 kPa | 0.3282 W/m/K
473.28 K, 407 kPa | 0.2609 W/m/K
473.28 K, 408 kPa | 0.261 W/m/K
473.28 K, 409 kPa | 0.2611 W/m/K
473.28 K, 5166 kPa | 0.2673 W/m/K
473.28 K, 5167 kPa | 0.267 W/m/K and 0.2671 W/m/K
473.28 K, 10065 kPa | 0.2691 W/m/K
473.28 K, 50176 kPa | 0.294 W/m/K
473.28 K, 50178 kPa | 0.2937 W/m/K
473.28 K, 50179 kPa | 0.292 W/m/K
473.29 K, 408 kPa | 0.2613 W/m/K
573.26 K, 50202 kPa | 0.3283 W/m/K
573.26 K, 50208 kPa | 0.3253 W/m/K
573.26 K, 96979 kPa | 0.356 W/m/K
573.26 K, 96990 kPa | 0.3549 W/m/K
573.26 K, 97001 kPa | 0.3548 W/m/K
573.27 K, 5202 kPa | 0.3043 W/m/K and 0.3057 W/m/K and 0.3047 W/m/K
573.27 K, 10155 kPa | 0.3066 W/m/K and 0.3072 W/m/K
573.27 K, 10156 kPa | 0.3066 W/m/K
573.27 K, 30167 kPa | 0.3171 W/m/K and 0.3173 W/m/K and 0.3175 W/m/K
573.27 K, 50204 kPa | 0.3274 W/m/K
573.27 K, 70099 kPa | 0.3376 W/m/K
573.27 K, 70106 kPa | 0.3381 W/m/K
573.27 K, 70114 kPa | 0.3387 W/m/K
573.28 K, 365 kPa | 0.2934 W/m/K
573.28 K, 367 kPa | 0.2929 W/m/K
573.28 K, 369 kPa | 0.2931 W/m/K
672.87 K, 30056 kPa | 0.3514 W/m/K
672.87 K, 30063 kPa | 0.3522 W/m/K
672.87 K, 30074 kPa | 0.3514 W/m/K
672.87 K, 50096 kPa | 0.36 W/m/K
672.87 K, 50118 kPa | 0.3625 W/m/K
672.87 K, 98041 kPa | 0.3854 W/m/K
672.87 K, 98074 kPa | 0.3853 W/m/K
672.87 K, 98109 kPa | 0.3873 W/m/K
672.88 K, 5137 kPa | 0.342 W/m/K
672.88 K, 5140 kPa | 0.344 W/m/K
672.88 K, 5143 kPa | 0.3429 W/m/K
672.88 K, 5147 kPa | 0.343 W/m/K
672.88 K, 10059 kPa | 0.3459 W/m/K
672.88 K, 10060 kPa | 0.3456 W/m/K
672.88 K, 10061 kPa | 0.3445 W/m/K
672.88 K, 50107 kPa | 0.3616 W/m/K
672.88 K, 70012 kPa | 0.3693 W/m/K
672.88 K, 70030 kPa | 0.3711 W/m/K
672.88 K, 70044 kPa | 0.3699 W/m/K
672.89 K, 304 kPa | 0.3296 W/m/K and 0.329 W/m/K
672.89 K, 305 kPa | 0.329 W/m/K
672.89 K, 306 kPa | 0.3287 W/m/K
771.9 K, 29994 kPa | 0.3905 W/m/K
771.9 K, 30036 kPa | 0.3906 W/m/K
771.9 K, 49904 kPa | 0.3973 W/m/K
771.9 K, 49932 kPa | 0.3973 W/m/K
771.9 K, 70405 kPa | 0.408 W/m/K
771.9 K, 70444 kPa | 0.4037 W/m/K
771.9 K, 70484 kPa | 0.4065 W/m/K
771.9 K, 98954 kPa | 0.4176 W/m/K
771.9 K, 99008 kPa | 0.417 W/m/K
771.9 K, 99143 kPa | 0.4168 W/m/K
771.9 K, 99205 kPa | 0.4188 W/m/K
771.91 K, 5144 kPa | 0.3835 W/m/K
771.91 K, 10086 kPa | 0.3838 W/m/K
771.91 K, 10092 kPa | 0.3825 W/m/K
771.91 K, 10100 kPa | 0.3836 W/m/K
771.91 K, 10109 kPa | 0.3825 W/m/K
771.91 K, 30014 kPa | 0.3888 W/m/K
771.91 K, 30058 kPa | 0.39 W/m/K
771.91 K, 49879 kPa | 0.3964 W/m/K
771.91 K, 70520 kPa | 0.4053 W/m/K
771.92 K, 378 kPa | 0.3679 W/m/K
771.92 K, 381 kPa | 0.3675 W/m/K
771.92 K, 383 kPa | 0.3671 W/m/K
771.92 K, 386 kPa | 0.3678 W/m/K
771.92 K, 5136 kPa | 0.3832 W/m/K
771.92 K, 5140 kPa | 0.3835 W/m/K
